Assay results reported in publication PMC3784021 (Analytical biochemistry, 2013).

Target: T1, AMSH (Associated Molecule with the SH3 domain of STAM) (Homo sapiens, UniProt O95630)
T1 sequence (O95630 219-424): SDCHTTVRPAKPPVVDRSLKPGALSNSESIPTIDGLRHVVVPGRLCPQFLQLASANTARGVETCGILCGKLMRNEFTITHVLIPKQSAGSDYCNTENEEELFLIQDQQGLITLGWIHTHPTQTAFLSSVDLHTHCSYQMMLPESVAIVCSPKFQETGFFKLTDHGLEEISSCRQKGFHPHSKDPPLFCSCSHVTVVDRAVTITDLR
Experiment: FRET deubiquitinase assay with Lys63-linked diubiquitin probe
Assay type: biochemical

IC50: 16.2 ± 3.1 µM
Structure (SMILES): CCN1C(=O)C=CC1=O [NEM, N-ethylmaleimide]
